Patent US20240076272A1, “Activators of Heme Regulated Inhibitor Kinase (HRI)” (The Brigham and Women`s Hospital, Inc., priority 2019, published 2024)
Where two headings read alike, the source gives them in different places.

Tests used:
[1] = system: cyclin D1; assay: Western blot, cyclin D1 expression in CRL-2813 cells; assay type: cell-based, human; conditions: 5 μM, 8 hours, Western blot (FIG. 2B)
Description: FIGS. 2A-2B show HRI activators of the present application induce eIF2α phosphorylation and modify its downstream effectors. In FIG. 2A, CRL-2813 cells were treated with 5 μM of each compound for 2 hours, cell lysates were probed with phosphorylated (P-eIF2α) and total eIF2α (T-eIF2α) and β-actin specific antibodies. In FIG. 2B, CRL-2813 cells were treated with 5 μM HRI activators for 8 hours and lysates were immunoblotted with antibodies against CHOP, p27^KiPl, cyclin D1 and β-actin.
Cells cultured under recommended media conditions were plated and maintained in serum-containing media without antibiotics in 14-cm plates (Nunc) until reaching 70% confluence. Cells were then treated with compounds for 6 h, washed with cold PBS once, and lysed with M-PER Mammalian Protein Extraction Reagent (Pierce) for 30 min on ice. The cell lysates were centrifuged at 12,000 RPM for 15 min and the supernatants were transferred to fresh tubes and the concentrations were determined by BCA (Pierce). Equal amount of proteins were mixed with Laemmli Sample Buffer, heated at 100° C. for 5 min, separated by SDS-PAGE, and probed with anti-phosphoserine-51-eIF2α (Phos-eIF2α), anti-total eIF2α-specific antibodies (Total-eIF2α) (Biosource International, Hopkinton, MA), anti-CHOP, anti-cyclin D1 or anti-actin (Santa Cruz Biotechnology, CA) using procedures substantially similar to previous reports (see e.g., Aktas et al, Mol. Cell. Biol. 17 (1997) 3850-3857).
Endogenous eIF2α is the best-known substrate of HRI and the upstream regulator of the eIF2·GTP·Met-tRNAi ternary complex abundance, while CHOP expression is a downstream effector of eIF2α phosphorylation. For assessing eIF2α phosphorylation, blotted cell lysates were treated for two hours with vehicle or selected compounds using antibodies specific for the total-eIF2α and the phosphorylated-eIF2α (T-eIF2α and [PhoS^51]-eIF2α), respectively (see e.g., Aktas et al, J. Nutr. 134 (2004) 2487S-2491S) (see FIG. 2A).

[2] = system: human melanoma CRL-2813 cells; assay: sulforhodamine B (SRB) cell proliferation assay; assay type: cell-based; conditions: 5 days, read-out: IC50 (concentration that inhibits growth of human melanoma CRL-2813 cells by 50%)
Description: Cells were seeded in 96-well plates and maintained for 5 days in the presence of 0.5 μM to 20 μM of individual compound, and cell proliferation was measured by the sulforhodamine B (SRB) assay according to previous reports (see e.g., Palakurthi et al, Cancer Res. 60 (2000) 2919-2925): briefly, at the end of a 5-day treatment, cells were fixed in 10% cold trichloroacetic acid. Cell number was estimated by measuring the remaining bound dye of sulforhodamine B after washing. The percentage of growth was calculated by using the equation: 100×[(T-T0)/(C-T0)], where T and C represent the absorbance in treated and control cultures at Day 5, and T0 at time zero, respectively. If T was less than T0, cell death had occurred and was calculated from 100×[(T-T0)/T0].
All 4-CF3-ΦOcAlkΦUs were tested in the sulforhodamine B (SRB) cell proliferation assay to establish the concentrations that inhibit human melanoma CRL-2813 cells growth by 50% (IC50) (see Table 1). This activity reflects a combined effect of membrane permeability and overall anti-proliferative effects that include on target and off-target effects.

[3] = system: MCF-7 cells transfected with siRNA targeting HRI; assay: cell proliferation assay with siRNA knockdown of HRI (specificity for HRI); assay type: cell-based, human; conditions: MCF-7 cells with or without siRNA targeting HRI; three days; SRB (FIG. 3)
Description: MCF-7 cells transfected with (solid bars) or without (hatched bars) siRNA targeting HRI were treated with the indicated concentrations of each compound for three days starting one day after transfection. Cell proliferation was measured by sulforhodamine B assay as previously reported (see e.g., Chen et al, Nat. Chem. Biol. 7 (2011) 610-616).
Stable cell lines utilized in this study were generated according to previous reports (see e.g., Bai et al, ChemBioChem, 14 (2013) 1255-1262). Briefly, cells were seeded at the density of 10^5 in 60-mm dish and transfected one day later using the Lipofectamine 2000 (Invitrogen). For selection of stable cell lines, transfected cells were transferred to 100-mm plates and selected with appropriate antibiotics (see e.g., Chen et al, Nat. Chem. Biol. 7 (2011) 610-616). siRNA knockdown was carried out in 96-well plates by reverse transfection as previously reported (see e.g., Chen et al, Nat. Chem. Biol. 7 (2011) 610-616).
To determine the specificity of the compounds described herein for HRI, knockdown expression of HRI in MCF-7 cells using a pool of siRNA targeting HRI was performed, along with a cell proliferation assay as a biologic response parameter (see e.g., Chen et al, Nat. Chem. Biol. 7 (2011) 610-616; and Chen et al, J. Med. Chem. 56 (2013) 9457-9470). This assay was selected because it compares specificity of the compounds for HRI compared to all other cellular targets that can impinge on cell proliferation. MCF-7 human breast cancer cells transfected with siRNA targeting HRI or vehicle were treated with various concentrations of representative 4-CF3-ΦOcHΦUs (1-VI, 4-VI, and 5-VI) and 4-CF3-ΦOcBΦU (1-IV).

[4] = system: human melanoma; conditions: xenograft mice model of human melanoma; cited from earlier work

melting point | IC50 ([2]; Homo sapiens, CRL2813, 120 h) | Structure (SMILES) | expression of cyclin D1 relative to DMSO [1] | effect of knocking down HRI on the anti-proliferative activity [3] | IC50 [2] | in vivo efficacy [4] | organ toxicity [4]
191.6 to 193 °C | 900 nM | N#Cc1cc(NC(=O)N[C@H]2C[C@H](Oc3ccc(C(F)(F)F)cc3)C2)cc(C(F)(F)F)c1 [Compound 1-IV, 1-(3-Cyano-5-(trifluoromethyl)phenyl)-3-(trans-3-(4-(trifluoromethyl)phenoxy)cyclobutyl)urea] | decreased the expression of cyclin D1 | dramatic reduction in the activity | – | – | –
– | – | N#Cc1cc(NC(=O)N[C@H]2CC[C@H](Oc3ccc(C(F)(F)F)cc3)CC2)cc(C(F)(F)F)c1 [Compound 1-VI, 1-(3-cyano-5-trifluoromethyl) phenyl-3-(trans-4-(4-(trifluoromethyl)phenoxy)cyclohexyl)urea, reference compound] | decreased the expression of cyclin D1 | dramatic reduction in the activity | 350 nM | in vivo efficacy | no apparent organ toxicity
237.8 to 240.8 °C | – | N#Cc1cc(F)cc(NC(=O)N[C@H]2CC[C@H](Oc3ccc(C(F)(F)F)cc3)CC2)c1 [Compound 4-VI, 1-(3-Cyano-5-fluorophenyl)-3-(trans-4-(4-(trifluoromethyl)phenoxy)cyclohexyl)urea] | decreased the expression of cyclin D1 | dramatic reduction in the activity | 630 ± 300 nM | – | –
– | 460 nM | N#Cc1ccc(NC(=O)N[C@H]2CC[C@H](Oc3ccc(C(F)(F)F)cc3)CC2)cc1F [Compound 5-VI, 1-(4-Cyano-3-fluorophenyl)-3-(trans-4-(4-(trifluoromethyl)phenoxy)cyclohexyl)urea] | decreased the expression of cyclin D1 | dramatic reduction in the activity | – | – | –
